In patent US7256202B2, “Composition and method for treatment of hepatic encephalopathy” (priority 2003, dated 2007):

System: patient with hepatic encephalopathy
Assay: Case report: patient with cryptogenic cirrhosis and hepatic encephalopathy treated with lactulose, then PEG 3350/lactulose
Type: in vivo, human
Description: The patient is a person with cryptogenic cirrhosis, a type of cirrhosis which has unknown etiology. They have had extensive workups for chronic anemia in one of the major California hospitals and was placed on neomycin, Lasix, iron sulfate, lactulose, and Prevacid; they also were on a restricted protein diet to reduce ammonia production. They had intermittent episodes of hepatic encephalopathy during their hospitalization. The patient's hemoglobin slowly drops and they require transfusions periodically because of portal gastropathy. […] Although the therapeutic range is three to four bowel movements per day, it is very difficult for them to get to that range because of these effects.
The patient has required several hospitalizations for lethargy, declines in hemoglobin, and hepatic encephalopathy. They have intermittent episodes of abdominal discomfort and mild irritation of various small bowel loops.
The platelet count is in the range of 57,000. The lowest level of ammonia has been 30 micromoles/L and several levels have been 80 to 90 micromoles/L with the patient taking the lactulose.
The patient has had three hospitalizations for hepatic encephalopathy and anemia, mostly resulting from poor compliance. The patient's last hospitalization was July 22nd. Four months later, the patient presented us with hepatic encephalopathy and bedsores.
They were switched to 17 g MiraLax® (PEG 3350 powder) combined with 10 g of lactulose dissolved in water and given twice a day. The patient's ammonia level is now in the 70 to 75-range of micromoles/L and holding fairly steady on a maintenance dosage of this composition once per day.
They have achieved clinical and therapeutic levels of ammonia levels, and is oriented to time and place, with no clinical signs of hepatic encephalopathy on physical examination.

[1] = lactulose up to three to four times a day

OC[C@H]1O[C@@H](O[C@@H]2[C@@H](CO)OC(O)(CO)[C@H]2O)[C@H](O)[C@@H](O)[C@H]1O (mixture of isomers) [lactulose]
bowel movements per day [1]: three to four to five | side effects with the drug [1]: nausea, abdominal discomfort, and bloating sensation | lowest level of ammonia (patient taking the lactulose): 30 µmol/L
